In PubChem BioAssay (NCI) one finds GI50 and TGI data, which are given here for eight compounds.

Among the test systems are CAKI-1 renal; HCT-15 colon; HOP-62 NSCLC; HT29 colon; NCI-H522 lung; OVCAR-8 ovarian; PC-3 prostate; SK-MEL-28 melanoma; SNB-19 CNS; SW-620 colon.
Holding throughout (test): inhibition of tumour cell growth, NCI panel, 48 h

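In this assay, cells in 96-well plates receive the compound at five concentrations for 48 hours. Endpoints are linearly interpolated between the surrounding concentrations. GI50: concentration for 50% inhibition of growth. TGI marks complete inhibition of growth.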

`N#C/C(=C/N1CCN(C(=O)c2ccco2)C1=S)C(=O)Nc1ccc(Cl)cc1`: the GI50 in the test with CAKI-1 renal is 13.2 µM; in the test with HCT-15 colon it was 21.3 µM; with HOP-62 NSCLC it was 25.7 µM; in the test on HT29 colon it was 21.4 µM; in the test with NCI-H522 lung, 16.7 µM; with OVCAR-8 ovarian, 20.6 µM. Also, the GI50 in the test on PC-3 prostate is 18.9 µM; in the test with SK-MEL-28 melanoma, 18.7 µM; in the test on SNB-19 CNS, 27.6 µM; in the test with SW-620 colon, 17.3 µM. Further, the TGI in the test on CAKI-1 renal was > 50 µM; with HCT-15 colon, > 50 µM; with HOP-62 NSCLC, > 50 µM; in the test with HT29 colon it was > 50 µM; with NCI-H522 lung, 30.2 µM; with OVCAR-8 ovarian, > 50 µM. The TGI with PC-3 prostate, in the test with SK-MEL-28 melanoma, in the test on SNB-19 CNS and in the test on SW-620 colon was > 50 µM in each case.

As to `Cc1ccc(S(=O)(=O)n2cc([C@@]3(O)C[C@H](CSC#N)OC3=O)c3ccccc32)cc1`, the GI50 in the test on CAKI-1 renal is 0.0836 µM; in the test with HCT-15 colon, 13.6 µM; in the test on HOP-62 NSCLC, 25.1 µM; in the test with HT29 colon it was 11.9 µM; in the test with NCI-H522 lung it was 3.99 µM; in the test with OVCAR-8 ovarian it was 10.2 µM. In addition, the GI50 in the test with PC-3 prostate was 17.8 µM; in the test on SK-MEL-28 melanoma it was 14 µM; with SNB-19 CNS, > 100 µM; with SW-620 colon it was 5.98 µM. Besides, the TGI in the test on CAKI-1 renal amounted to 25.8 µM; with HCT-15 colon it was 71.2 µM; in the test with HOP-62 NSCLC, 57.4 µM; with HT29 colon, 55 µM; with NCI-H522 lung, 18.1 µM; in the test on OVCAR-8 ovarian it was 22.5 µM. Further, the TGI is 50.4 µM with PC-3 prostate, 27.7 µM with SK-MEL-28 melanoma, > 100 µM in the test with SNB-19 CNS and 19.5 µM in the test on SW-620 colon.

With `COc1cc(C)cc(C(=O)/C=C/c2ccccc2)c1O`, the TGI with CAKI-1 renal turned out to be 39.1 µM; with HCT-15 colon, 40.9 µM; with HOP-62 NSCLC it was 40.3 µM; with HT29 colon, 34.7 µM; in the test on NCI-H522 lung, 50.8 µM; in the test on OVCAR-8 ovarian, 40 µM. Also, the TGI in the test on PC-3 prostate is 49.8 µM; in the test with SK-MEL-28 melanoma, 50.7 µM; in the test on SNB-19 CNS, 38.5 µM; in the test on SW-620 colon, 52.3 µM.

On to `COc1c(OC)c(OC)c2c(=O)cc(-c3ccc(OC(C)C)cc3)oc2c1OC`, for which the TGI in the test on CAKI-1 renal was 35.1 µM; in the test on HCT-15 colon, > 54.8 µM; with HOP-62 NSCLC, 37.5 µM; in the test on HT29 colon it was > 49.4 µM; in the test with NCI-H522 lung it was > 58.2 µM; in the test on OVCAR-8 ovarian it was 49.5 µM. Further, the TGI in the test with PC-3 prostate was > 100 µM; in the test on SK-MEL-28 melanoma, > 55.4 µM; with SNB-19 CNS, > 53.5 µM; in the test on SW-620 colon it was > 58.8 µM.

With `FC(F)c1ncc(-c2ccc(C(F)(F)F)cc2)c(NC2CCCCCC2)n1`, the GI50 with CAKI-1 renal, in the test with HCT-15 colon, in the test on HOP-62 NSCLC, in the test on HT29 colon, in the test on NCI-H522 lung and in the test on OVCAR-8 ovarian was > 10 µM in each case. Besides, the GI50 in the test with PC-3 prostate, in the test on SK-MEL-28 melanoma, in the test on SNB-19 CNS and with SW-620 colon was > 10 µM throughout. Also, the TGI in the test with CAKI-1 renal, with HCT-15 colon, in the test on HOP-62 NSCLC, in the test with HT29 colon, with NCI-H522 lung and in the test on OVCAR-8 ovarian was > 10 µM in each case. The TGI with PC-3 prostate, in the test with SK-MEL-28 melanoma, in the test on SNB-19 CNS and in the test with SW-620 colon was > 10 µM in each case.

Turning to `C=CC1C(CC2OC(CO)C(O)C(O)C2O)OC=C2C(=O)OCCC21O` (centres undefined), the GI50 was 30.6 µM in the test on CAKI-1 renal; 19.5 µM in the test on HCT-15 colon; 13.4 µM in the test with HOP-62 NSCLC; 2.23 µM in the test on HT29 colon; 4.72 µM in the test on NCI-H522 lung; 16.7 µM in the test with OVCAR-8 ovarian. Besides, the GI50 is 11 µM in the test with PC-3 prostate, 0.116 µM in the test on SK-MEL-28 melanoma, 13.8 µM in the test with SNB-19 CNS and 5.38 µM with SW-620 colon. Further, the TGI with CAKI-1 renal is 78.7 µM; in the test on HCT-15 colon, 49.9 µM; in the test on HOP-62 NSCLC, 35.5 µM; in the test on HT29 colon, 8.02 µM; with NCI-H522 lung it was 34.5 µM; in the test with OVCAR-8 ovarian it was 62.4 µM. Moreover, the TGI with PC-3 prostate was 27.9 µM; with SK-MEL-28 melanoma it was 19.2 µM; with SNB-19 CNS it was 37.1 µM; with SW-620 colon it was 29.9 µM.

As to `CN1CCN(C(=O)c2ccc(NC(=O)Nc3ccc(-c4nc(N5CCOCC5)c5cccn5n4)cc3)cc2)CC1`, the GI50 in the test on CAKI-1 renal is 0.542 µM; with HCT-15 colon, 0.548 µM; with HOP-62 NSCLC, 0.025 µM; in the test on HT29 colon, 0.0487 µM; in the test on NCI-H522 lung, 0.0357 µM; with OVCAR-8 ovarian it was 0.0486 µM. In addition, the GI50 in the test with PC-3 prostate is 0.0488 µM; in the test with SK-MEL-28 melanoma it was 0.0465 µM; with SNB-19 CNS, 0.0363 µM; with SW-620 colon, 0.0634 µM. Moreover, the TGI in the test with CAKI-1 renal was 10.7 µM; with HCT-15 colon, 12.6 µM; in the test with HOP-62 NSCLC, 0.232 µM; with NCI-H522 lung it was 16.9 µM; with OVCAR-8 ovarian, > 100 µM; in the test on PC-3 prostate it was 19.3 µM. In addition, the values for the TGI with SK-MEL-28 melanoma, in the test on SNB-19 CNS and with SW-620 colon were 0.77 µM, 11.1 µM and 12.1 µM, respectively.

`CCN(CC)CCCNCc1cc(-c2ccccc2)nc2cc(Cl)ccc12`: the GI50 in the test on CAKI-1 renal is 2.35 µM; in the test on HCT-15 colon, 3.1 µM; with HOP-62 NSCLC, 5.54 µM; in the test on HT29 colon, 2.2 µM; with NCI-H522 lung, 4.96 µM; in the test with OVCAR-8 ovarian, 5.81 µM. For the same compound, the GI50 is 4.37 µM in the test on PC-3 prostate, 1.72 µM in the test with SK-MEL-28 melanoma, 10.2 µM in the test with SNB-19 CNS and 1.97 µM in the test with SW-620 colon. The TGI in the test on CAKI-1 renal was found to be 11.2 µM; in the test on HCT-15 colon it was 10.2 µM; in the test with HOP-62 NSCLC, 19.3 µM; in the test on HT29 colon it was 5.39 µM; with NCI-H522 lung it was 17.2 µM; in the test on OVCAR-8 ovarian, 18.8 µM. For the same compound, the TGI worked out at 18.4 µM in the test on PC-3 prostate, 3.11 µM in the test with SK-MEL-28 melanoma, 25.6 µM in the test with SNB-19 CNS and 3.94 µM in the test on SW-620 colon.
